Laboratory results reported in patent US11332439B2, “Anthocyanin complex synthesized from date palm leaf extract” (UNITED ARAB EMIRATES UNIVERSITY, priority 2020, dated 2022).

Assay: Antioxidant activity using DPPH as a free radical (Brand-Williams method)
Assay type: biochemical
Details: for antiradical power (ARP): ARP=I/EC50, larger ARP indicates a more efficient antioxidant; for time to reach steady state in reaction with DPPH*: reaction kinetics, absorbance at 515 nm, methanol
Procedure: Antioxidant activity of the co-pigmented anthocyanin complex was assessed using DPPH as a free radical according to the Brand-Williams method. Activity of the co-pigmented anthocyanin complex was compared with two known antioxidants, ascorbic acid and Trolox. Concentrations tested are expressed as moles of antioxidant per mole DPPH. Briefly, an antioxidant solution in methanol (0.1 ml) was added to 3.9 ml of a 6×10^−5 mol/L methanol DPPH* solution. The decrease in absorbance was determined at 515 nm at 0 min, 1 min, and every 15 min until the reaction reached a plateau. The extract initial DPPH* concentration (CDPPH) in the reaction medium was calculated from a calibration curve with the equation Abs515 nm=0.0765×(CDPPH)+0.1118 as determined by linear regression (R2=0.9994). For each antioxidant concentration tested, the reaction kinetics were plotted (see FIGS. 6A-6C). From these graphs, the percentage of DPPH* remaining at the steady state was determined, and the values were transferred onto another graph showing percentage of residual DPPH* at the steady state as a function of the molar ratio of antioxidant to DPPH*. Antiradical activity was defined as the amount of antioxidant necessary to decrease the initial DPPH* concentration by 50% (Efficient Concentration=EC50 (mol/L)). The results were analyzed in terms of antiradical power (ARP), with a larger ARP indicating a more efficient antioxidant (ARP=I/EC50 AO/(mol/L) DPPH*).

Row | Compound | antiradical power (ARP) | time to reach steady state in reaction with DPPH*
1 | O=C1O[C@H]([C@@H](O)CO)C(O)=C1O [ascorbic acid] | 0.329 | approximately 30 minutes
2 | Cc1c(C)c2c(c(C)c1O)CCC(C)(C(=O)O)O2 (stereo not shown) [Trolox] | 4.65 | less than a minute
